Earlier results in patent US20090285770A1, “Topical Compositions for Promoting Homeostasis of the Skin” (L'Oreal, priority 2005, published 2009).
Read-outs that look alike come from different tables or passages of the source. Ends that are not written are not given here.

Experiments:
P1 integrins = conditions: applied to skin ex vivo
β1 integrins [1] = conditions: cells in culture
β1 integrins [2] = test system: β1 integrins
(6 integrins) = conditions: fibroblasts and keratinocytes in culture
[3] = test system: α2, α3, α6, αv and β1 integrins; conditions: keratinocytes in culture or reconstructed skins

**Q.** For “GPQGPQ [COLLAXYL, collagen mimetic hexapeptide sold by Vincience]”, which “expression of P1 integrins” value (P1 integrins) is on record?
**A.** stimulates the expression of P1 integrins

**Q.** Which “expression of β1 integrins” value (β1 integrins [1]) does the source give for “KLDAPT [VINCI 02, fibronectin mimetic hexapeptide sold by Vincience]” here?
**A.** stimulates the expression of β1 integrins

**Q.** With “RDFTKATNIRLRFLR [VINCI 01, laminin mimetic oligopeptide sold by Vincience]” as the substance, how does the “expression of β1 integrins” value (β1 integrins [2]) read?
**A.** stimulates the expression of β1 integrins

**Q.** With SERILESINE as the substance, how does the “expression of (6 integrins)” value ((6 integrins)) read?
**A.** increasing the expression of (6 integrins

**Q.** With copper gluconate as the substance, how does the “expression of integrins, in particular the α2, α3, α6, αv and β1 integrins” value (shortened to “expression of integrins”) [3] read?
**A.** capable of increasing the expression of integrins

**Q.** Which “expression of integrins” value [3] does the source give for manganese gluconate here?
**A.** capable of increasing the expression of integrins

**Q.** Which “expression of integrins” value [3] does the source give for zinc gluconate here?
**A.** capable of increasing the expression of integrins
